Results from US6737383B1, “Herbicidal oxadiazolidines” (priority 1999, dated 2004).

Assays:
soybean = assay: Test B pre/postemergence soybean; assay type: in vivo, Glycine max
How it was run: (§1)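 Herbicidal effect was estimated by eye on a ten-point control scale after plants spent twelve to sixteen days in a greenhouse following soil or foliar treatment. Foliar sprays targeted plants at one to four leaves; all doses were formulated in a non-phytotoxic solvent with surfactant.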

pigweed = assay: Test B pre/postemergence pigweed; assay type: in vivo, Amaranthus retroflexus
How it was run: as §1

smallflower flatsedge = assay: Test B flood test smallflower flatsedge; assay type: in vivo, Cyperus difformis
How it was run: (§2)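 Read-out is a visual response score from 0 (no effect) to 10 (complete control), assigned by comparison with untreated controls. Treatment was applied at the 2-leaf stage, and plants stayed in the greenhouse for twelve to sixteen days before scoring.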

giant foxtail = assay: Test B pre/postemergence giant foxtail; assay type: in vivo, Setaria faberii
How it was run: as §1

cocklebur = assay: Test B pre/postemergence cocklebur; assay type: in vivo, Xanthium strumarium
How it was run: as §1

rape = assay: Test B pre/postemergence rape; assay type: in vivo, Brassica napus
How it was run: as §1

wheat = assay: Test B pre/postemergence wheat; assay type: in vivo, Triticum aestivum
How it was run: as §1

morningglory = assay: Test B pre/postemergence morningglory; assay type: in vivo, Ipomoea hederacea
How it was run: as §1

sugar beet = assay: Test B pre/postemergence sugar beet; assay type: in vivo, Beta vulgaris
How it was run: as §1

wild oat = assay: Test B pre/postemergence wild oat; assay type: in vivo, Avena fatua
How it was run: as §1

rice = assay: Test B flood test rice; assay type: in vivo, Oryza sativa
How it was run: as §2

bedstraw = assay: Test B pre/postemergence bedstraw; assay type: in vivo, Galium aparine
How it was run: as §1

surinam grass = assay: Test B pre/postemergence surinam grass; assay type: in vivo, Brachiaria decumbens
How it was run: as §1

corn = assay: Test B pre/postemergence corn; assay type: in vivo, Zea mays
How it was run: as §1

velvetleaf = assay: Test B pre/postemergence velvetleaf; assay type: in vivo, Abutilon theophrasti
How it was run: as §1

blackgrass = assay: Test B pre/postemergence blackgrass; assay type: in vivo, Alopecurus myosuroides
How it was run: as §1

[1] = Postemergence, Rate 62 g/ha, scale 0 to 10, 0 is no effect, 10 is complete control
[2] = Postemergence, Rate 250 g/ha, scale 0 to 10, 0 no effect, 10 complete control
[3] = Preemergence, Rate 62 g/ha, scale 0 to 10, 0 is no effect, 10 is complete control
[4] = Preemergence, Rate 125 g/ha, scale 0 to 10 (0 no effect, 10 complete control)
[5] = Preemergence, Rate 250 g/ha, scale of 0 to 10 where 0 is no effect and 10 is complete control
[6] = Preemergence, Rate 500 g/ha, scale 0 (no effect) to 10 (complete control)
[7] = Rate 125 g/ha, Postemergence, scale 0 to 10, 0 no effect, 10 complete control
[8] = Rate 500 g/ha, Postemergence, scale 0 to 10, 0 no effect, 10 complete control
[9] = Rate 125 g/ha, Postemergence section (flood test species), scale 0 to 10, 0 no effect, 10 complete control
[10] = Rate 500 g/ha, listed under Postemergence (flood test species), scale 0 to 10, 0 no effect, 10 complete control
[11] = flood test, listed under Postemergence, Rate 250 g/ha, scale 0 to 10, 0 no effect, 10 complete control

Cc1ccccc1-n1c(=O)on(C(=O)N(c2ccc(C#N)cc2)C(C)C)c1=O [Compound 51]
Soybean plant response rating (soybean; [1]): 0
Soybean plant response rating (soybean; [2]): 0
Plant response rating, Soybean (soybean; [3]): 0
Plant response rating, Soybean (soybean; [4]): 0
Plant response rating, Soybean (soybean; [5]): 0
Soybean plant response rating (soybean; [6]): 0
Soybean plant response rating (soybean; [7]): 0
Soybean plant response rating (soybean; [8]): 1
Redroot pigweed plant response rating (pigweed; [1]): 0
Redroot pigweed plant response rating (pigweed; [2]): 0
Plant response rating, Redroot pigweed (pigweed; [3]): 0
Plant response rating, Redroot pigweed (pigweed; [4]): 0
Plant response rating, Redroot pigweed (pigweed; [5]): 0
Redroot pigweed plant response rating (pigweed; [6]): 0
Redroot pigweed plant response rating (pigweed; [7]): 0
Redroot pigweed plant response rating (pigweed; [8]): 0
S. Flatsedge plant response rating (smallflower flatsedge; [1]): 0
S. Flatsedge plant response rating (smallflower flatsedge; [9]): 0
S. Flatsedge plant response rating (smallflower flatsedge; [10]): 0
S. Flatsedge plant response rating (smallflower flatsedge; [11]): 0
Giant foxtail plant response rating (giant foxtail; [1]): 0
Giant foxtail plant response rating (giant foxtail; [2]): 0
Plant response rating, Giant foxtail (giant foxtail; [3]): 0
Plant response rating, Giant foxtail (giant foxtail; [4]): 2
Plant response rating, Giant foxtail (giant foxtail; [5]): 4
Giant foxtail plant response rating (giant foxtail; [6]): 8
Giant foxtail plant response rating (giant foxtail; [7]): 0
Giant foxtail plant response rating (giant foxtail; [8]): 3
Cocklebur plant response rating (cocklebur; [1]): 0
Cocklebur plant response rating (cocklebur; [2]): 0
Plant response rating, Cocklebur (cocklebur; [3]): 0
Plant response rating, Cocklebur (cocklebur; [4]): 0
Plant response rating, Cocklebur (cocklebur; [5]): 0
Cocklebur plant response rating (cocklebur; [6]): 0
Cocklebur plant response rating (cocklebur; [7]): 0
Cocklebur plant response rating (cocklebur; [8]): 0
Rape plant response rating (rape; [1]): 0
Rape plant response rating (rape; [2]): 0
Plant response rating, Rape (rape; [3]): 0
Plant response rating, Rape (rape; [4]): 0
Plant response rating, Rape (rape; [5]): 0
Rape plant response rating (rape; [6]): 0
Rape plant response rating (rape; [7]): 0
Rape plant response rating (rape; [8]): 0
Wheat plant response rating (wheat; [1]): 0
Wheat plant response rating (wheat; [2]): 0
Plant response rating, Wheat (wheat; [3]): 0
Plant response rating, Wheat (wheat; [4]): 0
Plant response rating, Wheat (wheat; [5]): 0
Wheat plant response rating (wheat; [6]): 0
Wheat plant response rating (wheat; [7]): 0
Wheat plant response rating (wheat; [8]): 0
Morningglory plant response rating (morningglory; [1]): 0
Morningglory plant response rating (morningglory; [2]): 0
Plant response rating, Morningglory (morningglory; [3]): 0
Plant response rating, Morningglory (morningglory; [4]): 0
Plant response rating, Morningglory (morningglory; [5]): 0
Morningglory plant response rating (morningglory; [6]): 0
Morningglory plant response rating (morningglory; [7]): 0
Morningglory plant response rating (morningglory; [8]): 1
Sugarbeets plant response rating (sugar beet; [1]): 0
Sugarbeets plant response rating (sugar beet; [2]): 0
Plant response rating, Sugarbeets (sugar beet; [3]): 0
Plant response rating, Sugarbeets (sugar beet; [4]): 0
Plant response rating, Sugarbeets (sugar beet; [5]): 0
Sugarbeets plant response rating (sugar beet; [6]): 0
Sugarbeets plant response rating (sugar beet; [7]): 0
Sugarbeets plant response rating (sugar beet; [8]): 0
Wild oats plant response rating (wild oat; [1]): 0
Wild oats plant response rating (wild oat; [2]): 0
Plant response rating, Wild oats (wild oat; [4]): 0
Plant response rating, Wild oats (wild oat; [5]): 0
Wild oats plant response rating (wild oat; [6]): 0
Wild oats plant response rating (wild oat; [7]): 0
Wild oats plant response rating (wild oat; [8]): 0
Rice plant response rating (rice; [1]): 0
Rice plant response rating (rice; [9]): 0
Rice plant response rating (rice; [10]): 0
Rice plant response rating (rice; [11]): 0
Bedstraw plant response rating (bedstraw; [1]): 0
Bedstraw plant response rating (bedstraw; [2]): 0
Plant response rating, Bedstraw (bedstraw; [3]): 0
Plant response rating, Bedstraw (bedstraw; [4]): 0
Plant response rating, Bedstraw (bedstraw; [5]): 0
Bedstraw plant response rating (bedstraw; [6]): 0
Bedstraw plant response rating (bedstraw; [7]): 0
B. signalgrass plant response rating (surinam grass; [1]): 0
B. signalgrass plant response rating (surinam grass; [2]): 0
Plant response rating, B. signalgrass (surinam grass; [3]): 0
Plant response rating, B. signalgrass (surinam grass; [4]): 0
Plant response rating, B. signalgrass (surinam grass; [5]): 0
B. signalgrass plant response rating (surinam grass; [6]): 0
B. signalgrass plant response rating (surinam grass; [7]): 0
B. signalgrass plant response rating (surinam grass; Rate 500 g/ha, Postemergence, scale of 0 to 10 where 0 is no effect and 10 is complete control): 0
Corn plant response rating (corn; [1]): 0
Corn plant response rating (corn; [2]): 0
Plant response rating, Corn (corn; [3]): 0
Plant response rating, Corn (corn; [4]): 0
Plant response rating, Corn (corn; [5]): 0
Corn plant response rating (corn; [6]): 0
Corn plant response rating (corn; [7]): 0
Corn plant response rating (corn; [8]): 0
Velvetleaf plant response rating (velvetleaf; [1]): 0
Velvetleaf plant response rating (velvetleaf; [2]): 0
Plant response rating, Velvetleaf (velvetleaf; [3]): 0
Plant response rating, Velvetleaf (velvetleaf; [4]): 0
Plant response rating, Velvetleaf (velvetleaf; [5]): 0
Velvetleaf plant response rating (velvetleaf; [6]): 0
Velvetleaf plant response rating (velvetleaf; [7]): 0
Velvetleaf plant response rating (velvetleaf; [8]): 0
Blackgrass plant response rating (blackgrass; [1]): 0
Blackgrass plant response rating (blackgrass; [2]): 0
Plant response rating, Blackgrass (blackgrass; [3]): 0
Plant response rating, Blackgrass (blackgrass; [4]): 0
Plant response rating, Blackgrass (blackgrass; [5]): 0
Blackgrass plant response rating (blackgrass; [6]): 0
Blackgrass plant response rating (blackgrass; [7]): 0
Blackgrass plant response rating (blackgrass; [8]): 0
